Test results: patent US20090124539A1, “Methods of treating infection” (priority 2007, published 2009)
Values after ≈ are worked out from the molar mass of the structure shown.

What was measured:
Enterococcus faecalis [1] = test: MIC, broth microdilution (CLSI); format: cell-based
Procedure: (§1) The solvent for all of the compounds was deionized water (DIW), and all of the compounds dissolved in the solvent. The stock solutions were allowed to stand in DIW for one hour at room temperature prior to testing to allow time for auto-sterilization.
(§2) The test organisms were originally received from clinical sources, or from the American Type Culture Collection. When received, the organisms were sub-cultured onto an appropriate agar medium. Following incubation, colonies were harvested from these plates and cell suspensions prepared and frozen at −80° C. On the day prior to assay, a frozen vial of each culture was thawed and the contents were streaked for isolation onto either Tryptic Soy Agar (Becton Dickinson, Sparks, Md.) or Tryptic Soy Agar (Enhanced Hemolysis; Becton Dickinson) supplemented with 5% sheep blood for streptococci. The agar plates were incubated overnight at 35° C. Staphylococcus aureus ATCC 29213 and Enterococcus faecalis ATCC 29212 were included as quality control isolates in the assay.
(§3) The test medium for the broth microdilution testing was Mueller Hinton II broth (MHB II; BBL# 212322, Lot # 6024003, Becton Dickinson). The broth was prepared at 1.05× normal weight/volume to offset the 5% volume of the drug solution in the final test plates.
(§4) CLSI guidelines recommend that Mueller-Hinton II broth be adjusted to contain 50 mg/L of Ca^++ ions for proper daptomycin MIC results. Since Mueller-Hinton II broth has already been adjusted by the manufacturer to contain approximately 25 mg/L of Ca^++ ions, an additional 25 mg/L of Ca^++ ions was adjusted with 10 mg/mL of CaCl2.2H2O (Lot# 084K0215; Sigma-Aldrich) added at a rate of 0.1 mL/L of broth, for each desired increment of 1 mg/L. This supplemented Mueller-Hinton II broth was used only in wells containing daptomycin.
(§5) MIC values were determined using a broth microdilution method as recommended by the Clinical and Laboratory Standards Institute (Clinical and Laboratory Standards Institute^a. Methods for Dilution Antimicrobial Susceptibility Tests for Bacteria That Grow Aerobically; Approved Standard-Seventh Edition. Clinical and Laboratory Standards Institute document M7-A7 [ISBN 1-56238-587-9]. Clinical and Laboratory Standards Institute, 940 West Valley Road, Suite 1400, Wayne, Pa. 19087-1898 USA, 2006). Automated liquid handlers (Multidrop 384, Labsystems, Helsinki, Finland; Biomek 2000 and Multimek 96, Beckman Coulter, Fullerton Calif.) were used to conduct serial dilutions and make liquid transfers.
(§6) Wells of two standard 96-well microdilution plates (Falcon 3918; Becton Dickinson) were filled with 150 μL of […] using the Multidrop 384. These plates were used to prepare the drug “mother plates” that provided the serial drug dilutions for replicate “daughter plates”. The Biomek 2000 was used to transfer 150 μl of each stock solution from the wells of column 1 of a deep well plate to the corresponding wells in column 1 of the mother plate and to make eleven 2-fold serial dilutions in the mother plates. The wells of column 12 contained no drug and were the organism growth control wells. Each mother plate has the capacity to create a total of 12 daughter plates.
(§7) The daughter plates were loaded with 180 μL of one of the media described above using the Multidrop 384. The wells of the daughter plates ultimately contained 180 μL of MHB II, 10 μL of drug solution, and 10 μL of bacterial inoculum prepared in broth appropriate to the test organism (1.05×). The daughter plates were prepared on the Multimek 96 instrument, which transferred 10 μL of drug solution from each well of the mother plate to each corresponding well of each daughter plate in a single step. […]

[2] = system: Staphylococcus epidermidis; test: MIC, broth microdilution (CLSI); format: cell-based
Procedure: as §1, §2, §3, §4, §5, §6, §7

Staphylococcus aureus [3] = details: quality control range for Staphylococcus aureus ATCC 29213 (# 100); cited from earlier work
Streptococcus pyogenes = test: MIC, broth microdilution (CLSI); format: cell-based
Procedure: as §1, §2, §3
For streptococci, lysed horse blood (Lot # H88621; Cleveland Scientific, Bath, Ohio) was added to the MHB II at a final concentration of 2%.
as §4, §5, §6, §7

Staphylococcus aureus [4] = test: MIC, broth microdilution (CLSI); format: cell-based
Procedure: (§8) The stock solutions were allowed to stand in DIW for one hour at room temperature prior to testing to allow time for auto-sterilization.
as §2, §3, §4, §5, §6
(§9) The daughter plates were loaded with 180 μL of one of the media described above using the Multidrop 384. The wells of the daughter plates ultimately contained 180 μL of MHB II, 10 μL of drug solution, and 10 μL of bacterial inoculum prepared in broth appropriate to the test organism (1.05×). The daughter plates were prepared on the Multimek 96 instrument, which transferred 10 μL of drug solution from each well of the mother plate to each corresponding well of each daughter plate in a single step.

Enterococcus faecium = test: MIC, broth microdilution (CLSI); format: cell-based
Procedure: as §8, §2, §3, §4, §5, §6, §9

Enterococcus faecalis [5] = details: quality control range for Enterococcus faecalis ATCC 29212 (# 101); cited from earlier work
Streptococcus pneumoniae = test: MIC, broth microdilution (CLSI); format: cell-based
Procedure: as §1, §2, §3
For streptococci, lysed horse blood (Lot # H88621; Cleveland Scientific, Bath, Ohio) was added to the MHB II at a final concentration of 2%. […]
as §5, §6, §9
Standardized inoculum of each organism was prepared following Clinical and Laboratory Standards Institute (Clinical and Laboratory Standards Institute^b. Performance Standards for Antimicrobial Susceptibility Testing; Sixteenth Informational Supplement. CLSI document M100-S16 [ISBN 1-56238-588-7]. Clinical and Laboratory Standards Institute, 940 West Valley Road, Suite 1400, Wayne, Pa. 19087-1898 USA, 2006) methods. The inoculum for each organism was dispensed into sterile reservoirs divided by length (Beckman Coulter), and the Biomek 2000 was used to inoculate the plates. […]

staphylococci = test: MIC, broth microdilution, summary over staphylococci; format: cell-based; details: against staphylococci
Procedure: as §1
as §2, with “Staphylococcus aureus ATCC 29213 and Enterococcus faecalis ATCC 29212 were included as quality control isolates in the assay.” left out
(§10) MIC values were determined using a broth microdilution method as recommended by the Clinical and Laboratory Standards Institute (Clinical and Laboratory Standards Institute^a. Methods for Dilution Antimicrobial Susceptibility Tests for Bacteria That Grow Aerobically; Approved Standard-Seventh Edition. Clinical and Laboratory Standards Institute document M7-A7 [ISBN 1-56238-587-9]. Clinical and Laboratory Standards Institute, 940 West Valley Road, Suite 1400, Wayne, Pa. 19087-1898 USA, 2006). […]

Enterococci = test: MIC, broth microdilution, summary over Enterococci; format: cell-based; details: against Enterococci
Procedure: as §1
as §2, with “Staphylococcus aureus ATCC 29213 and Enterococcus faecalis ATCC 29212 were included as quality control isolates in the assay.” left out
as §10

[6] = Streptococcus pyogenes Micromyx # 942, macrolide^R

CN[C@H](CC(C)C)C(=O)N[C@H]1C(=O)N[C@@H](CC(N)=O)C(=O)N[C@H]2C(=O)N[C@H]3C(=O)N[C@H](C(=O)N[C@H](C(=O)O)c4cc(O)cc(O)c4-c4cc3ccc4O)[C@H](O)c3ccc(c(Cl)c3)Oc3cc2cc(c3O[C@@H]2O[C@H](CO)[C@@H](O)[C@H](O)[C@H]2O[C@H]2C[C@](C)(N)[C@H](O)[C@H](C)O2)Oc2ccc(cc2Cl)[C@H]1O [Vancomycin, vancomycin]
MIC (Enterococcus faecalis [1]; Enterococcus faecalis, ATCC29212, Enterococcus faecalis Micromyx # 101, VSE, CLSI QC strain (ATCC 29212)): 4 µg/mL (≈ 2.76 µM)
MIC (Enterococcus faecalis [1]; Enterococcus faecalis, Enterococcus faecalis Micromyx # 413, LZD^R from res. dev. or other): 2 µg/mL (≈ 1.38 µM)
MIC (Enterococcus faecalis [1]; Enterococcus faecalis, Enterococcus faecalis Micromyx # 486, Van A): > 128 µg/mL
MIC (Enterococcus faecalis [1]; Enterococcus faecalis, Enterococcus faecalis Micromyx # 1088, Van B): 128 µg/mL (≈ 88.3 µM)
MIC ([2]; Staphylococcus epidermidis): 2 µg/mL (≈ 1.38 µM)
MIC ([2]; Staphylococcus epidermidis, MRSE): 4 µg/mL (≈ 2.76 µM)
MIC, CLSI Recommended Range (Staphylococcus aureus [3]): 0.5 to 2 µg/mL
MIC (Streptococcus pyogenes; Streptococcus pyogenes): 0.5 µg/mL (≈ 0.345 µM)
MIC (Streptococcus pyogenes; [6]): 0.5 µg/mL (≈ 0.345 µM)
MIC (Staphylococcus aureus [4]; Staphylococcus aureus, ATCC 29213 / MSSA, Staphylococcus aureus Micromyx # 100, MSSA, CLSI QC strain (ATCC 29213)): 2 µg/mL (≈ 1.38 µM)
MIC (Staphylococcus aureus [4]; Staphylococcus aureus, MRSA, Staphylococcus aureus Micromyx # 1004, MRSA, FA^R): 1 µg/mL (≈ 0.69 µM)
MIC (Staphylococcus aureus [4]; Staphylococcus aureus, MRSA, Staphylococcus aureus Micromyx # 1730, Community-acquired MRSA): 2 µg/mL (≈ 1.38 µM)
MIC (Staphylococcus aureus [4]; Staphylococcus aureus, MSSA, Staphylococcus aureus Micromyx # 1002, MSSA, macrolide^R): 1 µg/mL (≈ 0.69 µM)
MIC (Staphylococcus aureus [4]; Staphylococcus aureus, Staphylococcus aureus Micromyx # 106, RA^R): 1 µg/mL (≈ 0.69 µM)
MIC (Staphylococcus aureus [4]; Staphylococcus aureus, Staphylococcus aureus Micromyx # 1016, FA^R): 1 µg/mL (≈ 0.69 µM)
MIC (Staphylococcus aureus [4]; Staphylococcus aureus, Staphylococcus aureus Micromyx # 1651, LZD^R clinical isolate): 1 µg/mL (≈ 0.69 µM)
MIC (Staphylococcus aureus [4]; Staphylococcus aureus, Staphylococcus aureus Micromyx # 1727, GM^R): 1 µg/mL (≈ 0.69 µM)
MIC (Staphylococcus aureus [4]; Staphylococcus aureus, Staphylococcus aureus Micromyx # 1731, CHL^R): 1 µg/mL (≈ 0.69 µM)
MIC (Staphylococcus aureus [4]; Staphylococcus aureus, VISA, Staphylococcus aureus Micromyx # 1723, VISA): 8 µg/mL (≈ 5.52 µM)
MIC (Enterococcus faecium; Enterococcus faecium, Enterococcus faecium Micromyx # 750, Van^S): 1 µg/mL (≈ 0.69 µM)
MIC (Enterococcus faecium; Enterococcus faecium, Enterococcus faecium Micromyx # 752, Van A): > 128 µg/mL
MIC (Enterococcus faecium; Enterococcus faecium, Enterococcus faecium Micromyx # 1120, Van B): 32 µg/mL (≈ 22.1 µM)
MIC (Enterococcus faecium; Enterococcus faecium, Enterococcus faecium Micromyx # 1721, DAP^R): > 128 µg/mL
MIC, CLSI Recommended Range (Enterococcus faecalis [5]): 1 to 4 µg/mL
MIC (Streptococcus pneumoniae; Streptococcus pneumoniae, Streptococcus pneumoniae Micromyx # 374, Wild type): 0.5 µg/mL (≈ 0.345 µM)
MIC (Streptococcus pneumoniae; Streptococcus pneumoniae, Streptococcus pneumoniae Micromyx # 375, parC, gyrB): 0.5 µg/mL (≈ 0.345 µM)
MIC (Streptococcus pneumoniae; Streptococcus pneumoniae, Streptococcus pneumoniae Micromyx # 376, parC, gyrA): 0.25 µg/mL (≈ 0.173 µM)
MIC (Streptococcus pneumoniae; Streptococcus pneumoniae, Streptococcus pneumoniae Micromyx # 379, parC, gyrA, gyrB): 0.5 µg/mL (≈ 0.345 µM)
MIC (Streptococcus pneumoniae; Streptococcus pneumoniae, Streptococcus pneumoniae Micromyx # 927, mef(A)): 0.5 µg/mL (≈ 0.345 µM)
MIC (Streptococcus pneumoniae; Streptococcus pneumoniae, Streptococcus pneumoniae Micromyx # 928, erm(B)): 0.5 µg/mL (≈ 0.345 µM)

Empedopeptin
MIC (Enterococcus faecalis [1]; Enterococcus faecalis Micromyx # 101, VSE, CLSI QC strain (ATCC 29212)): 4 µg/mL
MIC (Enterococcus faecalis [1]; Enterococcus faecalis Micromyx # 413, LZD^R from res. dev. or other): 8 µg/mL
MIC (Enterococcus faecalis [1]; Enterococcus faecalis Micromyx # 486, Van A): 8 µg/mL
MIC (Enterococcus faecalis [1]; Enterococcus faecalis Micromyx # 1088, Van B): 16 µg/mL
MIC ([2]; Staphylococcus epidermidis Micromyx # 108, MRSE): 8 µg/mL
MIC ([2]; Staphylococcus epidermidis Micromyx # 835, MSSE): 8 µg/mL
MIC (Streptococcus pyogenes; [6]): ≦0.12 μg/mL
MIC (Streptococcus pyogenes; Streptococcus pyogenes Micromyx # 985, Susceptible): ≦0.12 μg/mL
MIC (Streptococcus pyogenes; both S. pyogenes test strains (including the macrolide-resistant strain)): ≤ 0.12 µg/mL
MIC (Staphylococcus aureus [4]; Staphylococcus aureus Micromyx # 100, MSSA, CLSI QC strain (ATCC 29213)): 4 µg/mL
MIC (Staphylococcus aureus [4]; Staphylococcus aureus Micromyx # 106, RA^R): 0.5 µg/mL
MIC (Staphylococcus aureus [4]; Staphylococcus aureus Micromyx # 1002, MSSA, macrolide^R): 4 µg/mL
MIC (Staphylococcus aureus [4]; Staphylococcus aureus Micromyx # 1004, MRSA, FA^R): 8 µg/mL
MIC (Staphylococcus aureus [4]; Staphylococcus aureus Micromyx # 1016, FA^R): 8 µg/mL
MIC (Staphylococcus aureus [4]; Staphylococcus aureus Micromyx # 1651, LZD^R clinical isolate): 4 µg/mL
MIC (Staphylococcus aureus [4]; Staphylococcus aureus Micromyx # 1723, VISA): 4 µg/mL
MIC (Staphylococcus aureus [4]; Staphylococcus aureus Micromyx # 1727, GM^R): 8 µg/mL
MIC (Staphylococcus aureus [4]; Staphylococcus aureus Micromyx # 1730, Community-acquired MRSA): 4 µg/mL
MIC (Staphylococcus aureus [4]; Staphylococcus aureus Micromyx # 1731, CHL^R): 4 µg/mL
MIC (Enterococcus faecium; Enterococcus faecium Micromyx # 750, Van^S): 8 µg/mL
MIC (Enterococcus faecium; Enterococcus faecium Micromyx # 752, Van A): 16 µg/mL
MIC (Enterococcus faecium; Enterococcus faecium Micromyx # 1120, Van B): 16 µg/mL
MIC (Enterococcus faecium; Enterococcus faecium Micromyx # 1721, DAP^R): 32 µg/mL
MIC values in the range (staphylococci; all strains tested): 0.5 to 8 µg/mL
MIC, majority of strains inhibited (staphylococci; majority of strains): 4 to 8 µg/mL
range of MIC values (Enterococci; all strains tested): 4 to 32 µg/mL
MIC, most strains inhibited (Enterococci; most strains): 8 to 16 µg/mL
MIC (Streptococcus pneumoniae; Streptococcus pneumoniae Micromyx # 374, Wild type): 1 µg/mL
MIC (Streptococcus pneumoniae; Streptococcus pneumoniae Micromyx # 375, parC, gyrB): 2 µg/mL
MIC (Streptococcus pneumoniae; Streptococcus pneumoniae Micromyx # 376, parC, gyrA): 2 µg/mL
MIC (Streptococcus pneumoniae; Streptococcus pneumoniae Micromyx # 379, parC, gyrA, gyrB): 2 µg/mL
MIC (Streptococcus pneumoniae; Streptococcus pneumoniae Micromyx # 927, mef(A)): <0.12 µg/mL
MIC (Streptococcus pneumoniae; Streptococcus pneumoniae Micromyx # 928, erm(B)): 0.5 µg/mL
MIC range (Streptococcus pneumoniae; all strains of S. pneumoniae): ≦0.12-2 μg/mL
